Experimental data from patent publication US12616753B2, “HSP70 inhibitors and methods of using same” (THE WISTAR INSTITUTE, priority 2020, dated 2026).

Legend:
[1] = system: MRPS14, NDUFA6, EGFR, AKT, mutant p53; test: Western blot of HSP70 client proteins in human tumor cell lines; assay type: cell-based
Experimental: Proteins were identified using False Discovery Rate (FDR) values less than 10% and p values less than 0.05. FIG. 3C: Three different melanoma cell lines (WM983B, WM4265, and 1205Lu) were treated with the indicated concentrations of AP-4-139B for 24 hours. Cell lysates were subjected to Western blot analysis, and immunoblotted for NDUFA6, MRPS14, and GAPDH (loading control). FIGS. 3D-3E: HT-29 (FIG. 3D) and LS411N (FIG. 3E) CRC cell lines were treated with the indicated concentrations of PET-16 or AP-4-139B for 48 hours. Cell lysates were subjected to Western blot analysis, and immunoblotted for EGFR, MRPS14, AKT, Cleaved Lamin A (CLA), Cleaved Caspase 3 (CC3), HSP70, HSP90 and GAPDH (loading control). FIG. 3F: HT-29 cells were treated with the indicated concentration of AP-4-139B, Gamitrinib (G-TPP), or VY-3-277 (negative control) for 48 hours. Cell lysates were subjected to Western blot analysis, and immunoblotted for HSP90, AKT, p53, and MRPS14.
Cell lysates were subjected to Western blot analysis, and immunoblotted for MRPS14, NDUFA6, BAK, COXIV, and GAPDH (loading control).
Antibodies used were purchased from: p53 (Ab-6) (DO-1, Millipore Sigma), p53 (1C12) (2524S), Cleaved Caspase 3 (9661S), Cleaved Lamin A (2035S), HSP90 (4877S), EGFR (4267S), HMGB1 (6893S), HSP70 (4873S), AKT (9272S), and GAPDH (2218S) (Cell Signaling, Danvers, MA, USA), MRPS14 (ab151118) (Abcam, Cambridge, MA, USA), NDUFA6 (GTX65550) (GeneTex, Irvine, CA, USA), BAK (H-211, sc-7873; Santa Cruz Biotechnology, Inc., Dallas, TX, USA), and HSP70 (C92F3A-5) (Enzo Life Sciences, Farmingdale, NY, USA). 17-AAG (Item No. 11039) and Metformin (Item No. 13118) were purchased from Cayman Chemical (Ann Arbor, MI, USA). Gamitrinib (G-TPP, HY-102007A) was purchased from MedChemExpress (Monmouth Junction, NJ, USA). All HSP70 inhibitors used were generated and confirmed by NMR. PLX-4720 was purchased from Chemietek (Catalog No. CT-P4720; Indianapolis, IN, USA). For in vitro studies, AP-4-139B was dissolved in DMSO. […]

MC38 cells [2] = test: Anti-tumor vaccination study in C57BL/6 mice; assay type: in vivo, mouse
Experimental: FIG. 25A: C57Bl/6 mice were injected with either PBS or AP-4-139B pre-treated MC38 cells into the left flank. 10 days later, the same mice were injected with untreated MC38 cells in the right flank. […] Log rank test p<0.0001. FIG. 25B: Tumor growth measured in mice in FIG. 25A over 25 days. n=15 mice per group. Wilcox rank-sum test p<0.0001.
(§1) For in vivo metastasis assays, 8-10 week old male C57Bl/6 mice were injected with 4×10^5 MC38 cells. Mice were then treated with either vehicle or 10 mg/kg AP-4-139B every 48 hours for 3 weeks. At the end of the study, mice were euthanized, lungs were harvested and fixed in formalin for analysis of lung tumor nodules by H&E. For anti-tumor vaccination studies, MC38 cells were treated with 10 μM AP-4-139B for 48 h, resulting in approximately 20% cell death (as assessed by Trypan Blue staining). 2×10^6 pre-treated MC38 cells or PBS was inoculated subcutaneously into the left flank of 8-10 week old male C57BL/6 mice. Ten days later, mice were challenged on the right flank with 5×10^5 live MC38 cells, and tumor growth and incidence were monitored 3 times per week. The absence of tumors was scored as an indication for efficient antitumor vaccination.

MC38 cells [3] = test: Cell death of MC38 cells pre-treated for vaccination (Trypan Blue staining); assay type: cell-based, mouse; settings: 10 μM, 48 h
Experimental: as §1

c1ccc(-c2cn3nc(CCCCCC[P+](c4ccccc4)(c4ccccc4)c4ccccc4)sc3n2)cc1 [AP-4-139B, Triphenyl(6-(6-phenylimidazo[2,1-b][1,3,4]thiadiazol-2-yl)hexyl)phosphonium bromide]
level of HSP70/HSP90 client proteins EGFR, AKT, mutant p53 ([1]; HT-29 and LS411N, 48 hours): decreased | level of BAK and CoxIV and other mitochondrial proteins ([1]; colorectal cancer cell lines, IC50, 24 hours): unaffected | level of MRPS14 and NDUFA6 ([1]; several tumor cell lines): significantly decreased level of MRPS14 and NDUFA6 | tumor size in vaccine-treated mice (MC38 cells [2]; over 25 days): markedly reduced compared with control | mice that developed tumors on the right flank (MC38 cells [2]; vaccinated with pre-treated MC38 cells, control 15 of 15): 3 of 15 | cell death of MC38 cells (MC38 cells [3]): approximately 20%
